Measured values from PubChem BioAssay (NCI).
“And” between values parts separate entries of the source, which are not always exact repeats. Equal values may be shown once.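 96-well plates; 48 h exposure; 5 concentrations. Endpoints by linear interpolation between flanking doses. Not reached: highest tested concentration assigned. The concentration for 50% growth inhibition is given as GI50. TGI denotes the concentration required for complete inhibition of growth.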

What follows are compounds tested on CCRF-CEM leukemia (assay: inhibition of tumour cell growth, NCI panel, 48 h).
`COc1cc(-c2nn(-c3cccc(NC(=O)c4ccccc4)c3)cc2-c2ccncc2)ccc1Cl` was tested, and the GI50 was 0.492 µM and the TGI was over 100 µM. Work on `CC(=O)[O-].CC(=O)[O-].O=C(N/N=C/c1cc(Cl)cc(Cl)c1O)c1ccncc1.[Cu+2]` yielded a TGI of over 100 µM. Work on `O=C1CSC(=S)N1/N=C/c1ccc(Cl)c([N+](=O)[O-])c1` yielded a TGI of over 100 µM. In the case of `CCCCCCCCCCSC(=N)N` (tested in a mixture with another compound), the GI50 is reported as 3.65 µM and the TGI is reported as 17 µM. For `COc1cc2c(cc1OC)-c1cc(OC)c(OC)cc1C(CN(C)C)C2` (stereo unspecified), the GI50 was over 10 µM and the TGI was over 10 µM. In the case of `O=C(NC1CCCCC1)NS(=O)(=O)c1ccc(N2N=C3c4ccccc4CC3C2c2ccc(Cl)cc2)cc1` (stereo unspecified), the GI50 is reported as 3.85 µM and the TGI is reported as 23.8 µM. `c1ccc(-c2n(Cc3ccc4ccccc4n3)cc[n+]2Cc2ccc3ccccc3c2)cc1` gave a GI50 of 1.22 µM and a TGI of 6.18 µM. `C[C@@H]1CC[C@H]2C(C)(C)[C@H]3C[C@@]12CC[C@@]3(C)O` showed a TGI of over 100 µM. `O=C(Nc1cccc(C(F)(F)F)c1)Nc1cccc(C(F)(F)F)c1` was tested, and the GI50 was 0.721 µM and the TGI was 10.8 µM. `CC(C)(C)[Si](C)(C)OC1[C@@H](O[Si](C)(C)C(C)(C)C)[C@@H](CNC(=O)NC(=O)C(F)(F)F)O[C@H]1n1cnc2c(NC(=O)Nc3ccccc3)ncnc21` (stereo partly specified) was tested, and the GI50 was 7.31 µM and the TGI was 41.6 µM. For `CC(=C(c1ccc(OCCN2CCCCC2)cc1)c1ccc(OCCN2CCCCC2)cc1)c1ccc(Cl)cc1`, the GI50 was 0.493 µM and the TGI was 1.56 µM. Work on `C=C(C)C(=O)O[C@@H]1C[C@@]2(C)O[C@@H]2C[C@H](O)/C(C)=C/[C@H]2OC(=O)C(=C)[C@@H]21` yielded a TGI of 63.6 µM. `C=CC(=O)Nc1cc(Nc2nccc(-c3cn(C)c4ccccc34)n2)c(OC)cc1N(C)CCN(C)C` was tested, and the GI50 was 1.61 µM and 2.19 µM and the TGI was 5.84 µM and 5.33 µM. Work on `CC(=O)OC1(C)N=NC2(CCCCC2)O1` (stereo unspecified) yielded a TGI of over 100 µM. `Cc1ccc(-c2nc(N3CCNCC3)c3oc(-c4ccc(C)cc4)nc3n2)cc1` gave a GI50 of 1.49 µM and a TGI of 4.04 µM. `Cc1cc2c(cc1C)[n+](=O)c(C(=O)c1ccccc1)c(C(F)F)n2[O-]` showed a GI50 of 5.12 µM and a TGI of 29.6 µM. `Cc1ccc(NC2=C3CCCCC3OC2=O)cc1` (stereo unspecified) was tested, and the GI50 was 21.6 µM and the TGI was 84.2 µM. `CN(C)c1ccc(/C=N/NC(=S)Nc2ccccc2)cc1` was tested, and the TGI was over 100 µM. `COc1ccc2ncnc(Nc3ccc(OCc4ccccc4)cc3)c2c1` gave a GI50 of 8.49 µM and a TGI of over 25 µM. `O=C1c2c(F)c(F)c(F)c(F)c2C(=O)N1c1ccc(F)cc1F` showed a GI50 of 0.958 µM and a TGI of 6.82 µM. In the case of `CC(C)[C@@H]1NC(=O)[C@]2(C)CSC(=N2)c2ccnc(c2)CNC(=O)C[C@@H](/C=C/CCS)OC1=O`, the GI50 is reported as 0.574 µM and the TGI is reported as over 100 µM. For `OC(c1cc(C(F)(F)F)nc2c(C(F)(F)F)cccc12)C1CCCCN1` (stereo unspecified), the GI50 was 3.04 µM and the TGI was 9.13 µM. In the case of `C/C=C/[C@@H]1O[C@@H]2COC(=O)C2=C[C@@H]1O`, the GI50 is reported as 2.94 µM and the TGI is reported as over 100 µM. For `COC(=O)/C=C/c1cc(OC(C)=O)c2c(c1)[C@@H](C(=O)OC)[C@H](c1ccc(OC(C)=O)c(OC(C)=O)c1)O2`, the GI50 was 0.039 µM and the TGI was 34.4 µM. With `Nc1nc2[nH]cc(CCc3ccc(C(=O)N[C@@H](CCC(=O)O)C(=O)O)cc3)c2c(=O)[nH]1` the GI50 was 0.211 µM and the TGI was over 100 µM. `Fc1cc(-c2nnc3n2N=C(c2ccc(Cl)cc2)CS3)c(Cl)cc1Cl` was tested, and the GI50 was 0.328 µM and the TGI was 1.13 µM. In the case of `CN1CCN(C(=O)COc2ccc(C34CC5CC(CC(C5)C3)C4)cc2)CC1`, the GI50 is reported as 5.44 µM and the TGI is reported as 27.8 µM. `COc1ccccc1NC(=O)c1cc2cc(Br)ccc2cc1O` was tested, and the GI50 was 2.62 µM and the TGI was 9.5 µM. `CC(=O)OCc1ccc2c(c1)C(O)NC(=O)O2` (stereo unspecified) gave a TGI of 40.4 µM. Work on `O=C(Nc1nn2c(-c3cc(C(F)(F)F)cc(C(F)(F)F)c3)nnc2s1)C1CCCC1` yielded a GI50 of 0.459 µM and a TGI of over 82.1 µM. `COC(=O)[C@]12CC[C@@H](C)[C@H](C)[C@@H]1C1=CC[C@@H]3[C@@]4(C)C[C@@H](O)[C@H](O)[C@@](C)(CO)[C@@H]4[C@H](O)C[C@@]3(C)[C@]1(C)CC2` showed a GI50 of 7.77 µM and a TGI of 36.9 µM. In the case of `COc1ccc(CN2C(=O)C(Cl)=C(Nc3cccc(C(F)(F)F)c3)C2=O)cc1`, the GI50 is reported as 2.54 µM and the TGI is reported as 17.4 µM.

Each compound was assayed on NCI-H226 lung (assay: inhibition of tumour cell growth, NCI panel, 48 h).
`COc1cc(-c2nn(-c3cccc(NC(=O)c4ccccc4)c3)cc2-c2ccncc2)ccc1Cl` gave a GI50 of 3.3 µM and a TGI of over 100 µM. `CC(=O)[O-].CC(=O)[O-].O=C(N/N=C/c1cc(Cl)cc(Cl)c1O)c1ccncc1.[Cu+2]` showed a TGI of over 100 µM. For `O=C1CSC(=S)N1/N=C/c1ccc(Cl)c([N+](=O)[O-])c1`, the TGI was over 100 µM. `CCCCCCCCCCSC(=N)N` (tested in a mixture with another compound) showed a GI50 of 18.3 µM and a TGI of 40.1 µM. With `COc1cc2c(cc1OC)-c1cc(OC)c(OC)cc1C(CN(C)C)C2` (stereo unspecified) the GI50 was over 10 µM and the TGI was over 10 µM. With `O=C(NC1CCCCC1)NS(=O)(=O)c1ccc(N2N=C3c4ccccc4CC3C2c2ccc(Cl)cc2)cc1` (stereo unspecified) the GI50 was 19.8 µM and the TGI was 49.1 µM. Compound `c1ccc(-c2n(Cc3ccc4ccccc4n3)cc[n+]2Cc2ccc3ccccc3c2)cc1` has a GI50 of 1.3 µM and a TGI of 7.33 µM. `C[C@@H]1CC[C@H]2C(C)(C)[C@H]3C[C@@]12CC[C@@]3(C)O` showed a TGI of over 100 µM. `O=C(Nc1cccc(C(F)(F)F)c1)Nc1cccc(C(F)(F)F)c1` gave a GI50 of 1.01 µM and a TGI of 3.66 µM. Work on `CC(C)(C)[Si](C)(C)OC1[C@@H](O[Si](C)(C)C(C)(C)C)[C@@H](CNC(=O)NC(=O)C(F)(F)F)O[C@H]1n1cnc2c(NC(=O)Nc3ccccc3)ncnc21` (stereo partly specified) yielded a GI50 of 4.61 µM and a TGI of 11.8 µM. Compound `CC(=C(c1ccc(OCCN2CCCCC2)cc1)c1ccc(OCCN2CCCCC2)cc1)c1ccc(Cl)cc1` has a GI50 of 0.457 µM and a TGI of 0.962 µM. `C=C(C)C(=O)O[C@@H]1C[C@@]2(C)O[C@@H]2C[C@H](O)/C(C)=C/[C@H]2OC(=O)C(=C)[C@@H]21` gave a TGI of over 100 µM. With `C=CC(=O)Nc1cc(Nc2nccc(-c3cn(C)c4ccccc34)n2)c(OC)cc1N(C)CCN(C)C` the GI50 was 3.93 µM and 1.39 µM and the TGI was 13.1 µM and 3.4 µM. With `CC(=O)OC1(C)N=NC2(CCCCC2)O1` (stereo unspecified) the TGI was over 100 µM. Work on `Cc1ccc(-c2nc(N3CCNCC3)c3oc(-c4ccc(C)cc4)nc3n2)cc1` yielded a GI50 of over 44.1 µM and a TGI of over 64.7 µM. `Cc1cc2c(cc1C)[n+](=O)c(C(=O)c1ccccc1)c(C(F)F)n2[O-]` showed a GI50 of 25.5 µM and a TGI of 72.9 µM. For `Cc1ccc(NC2=C3CCCCC3OC2=O)cc1` (stereo unspecified), the GI50 was 87.1 µM and the TGI was over 100 µM. Compound `CN(C)c1ccc(/C=N/NC(=S)Nc2ccccc2)cc1` has a TGI of over 100 µM. For `COc1ccc2ncnc(Nc3ccc(OCc4ccccc4)cc3)c2c1`, the GI50 was 8.1 µM and the TGI was over 25 µM. Work on `O=C1c2c(F)c(F)c(F)c(F)c2C(=O)N1c1ccc(F)cc1F` yielded a GI50 of 17.2 µM and a TGI of 50.8 µM. With `CC(C)[C@@H]1NC(=O)[C@]2(C)CSC(=N2)c2ccnc(c2)CNC(=O)C[C@@H](/C=C/CCS)OC1=O` the GI50 was 0.458 µM and the TGI was 12.4 µM. `OC(c1cc(C(F)(F)F)nc2c(C(F)(F)F)cccc12)C1CCCCN1` (stereo unspecified) gave a GI50 of 1.8 µM and a TGI of 3.7 µM. `C/C=C/[C@@H]1O[C@@H]2COC(=O)C2=C[C@@H]1O` gave a GI50 of 17.6 µM and a TGI of 42 µM. `COC(=O)/C=C/c1cc(OC(C)=O)c2c(c1)[C@@H](C(=O)OC)[C@H](c1ccc(OC(C)=O)c(OC(C)=O)c1)O2` showed a GI50 of 1.71 µM and a TGI of 27.4 µM. `Nc1nc2[nH]cc(CCc3ccc(C(=O)N[C@@H](CCC(=O)O)C(=O)O)cc3)c2c(=O)[nH]1` was tested, and the TGI was over 100 µM. With `Fc1cc(-c2nnc3n2N=C(c2ccc(Cl)cc2)CS3)c(Cl)cc1Cl` the GI50 was 17.8 µM and the TGI was 40.6 µM. Work on `CN1CCN(C(=O)COc2ccc(C34CC5CC(CC(C5)C3)C4)cc2)CC1` yielded a GI50 of 14 µM and a TGI of 37.4 µM. Work on `COc1ccccc1NC(=O)c1cc2cc(Br)ccc2cc1O` yielded a GI50 of 1.65 µM and a TGI of 6.06 µM. For `CC(=O)OCc1ccc2c(c1)C(O)NC(=O)O2` (stereo unspecified), the TGI was over 100 µM. With `O=C(Nc1nn2c(-c3cc(C(F)(F)F)cc(C(F)(F)F)c3)nnc2s1)C1CCCC1` the GI50 was 1.23 µM and the TGI was over 100 µM. `COC(=O)[C@]12CC[C@@H](C)[C@H](C)[C@@H]1C1=CC[C@@H]3[C@@]4(C)C[C@@H](O)[C@H](O)[C@@](C)(CO)[C@@H]4[C@H](O)C[C@@]3(C)[C@]1(C)CC2` showed a GI50 of 17.8 µM and a TGI of 45 µM.
